In ChEMBL document CHEMBL1201862, “PubChem BioAssay data set” (2004):
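Interpolation was linear, between the two tested concentrations surrounding the appropriate level; five concentrations were tested over 48 hours in 96-well plates. GI50 = concentration required for 50% inhibition of growth.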 Calls of active or inactive are those of the source. Rule as the data show it: active = GI50 up to about 1.1 µM and inactive = higher.

Key:
Experiment in all cases: NCI anticancer screen, dose series, 48 h
ACHN = tested on: ACHN
BT-549 = tested on: BT-549
COLO 205 = tested on: COLO 205
HOP-62 = tested on: HOP-62
Hs-578T = tested on: Hs-578T
IGROV-1 = tested on: IGROV-1
LOX IMVI = tested on: LOX IMVI
MCF7 = tested on: MCF7
MDA-N = tested on: MDA-N
NCI-H226 = tested on: NCI-H226
NCI-H23 = tested on: NCI-H23
OVCAR-5 = tested on: OVCAR-5
OVCAR-8 = tested on: OVCAR-8
RXF 393 = tested on: RXF 393
SF-268 = tested on: SF-268
SK-MEL-5 = tested on: SK-MEL-5
SN12C = tested on: SN12C
TK-10 = tested on: TK-10
U-251 = tested on: U-251
MOLT-4 = tested on: MOLT-4

Measured: GI50

CC(C)N1CCN(c2ccncc2S(=O)(=O)N2CCCCC2)CC1
inactive: ACHN > 100 µM | BT-549 > 100 µM | COLO 205 > 100 µM | HOP-62 > 100 µM | Hs-578T > 100 µM | IGROV-1 > 100 µM | LOX IMVI > 100 µM | MCF7 > 100 µM | MDA-N > 100 µM | NCI-H226 > 100 µM | NCI-H23 > 100 µM | OVCAR-5 > 100 µM | OVCAR-8 > 100 µM | RXF 393 > 100 µM | SF-268 > 100 µM | SK-MEL-5 > 100 µM | SN12C > 100 µM | TK-10 > 100 µM | U-251 > 100 µM

CSC1NC(c2ccc(Cl)cc2)=C(C#N)C(=O)N1C1OCC(OC(C)=O)C(OC(C)=O)C1OC(C)=O (stereo unspecified)
inactive: ACHN > 100 µM | BT-549 > 100 µM | COLO 205 > 100 µM | HOP-62 > 100 µM | Hs-578T > 100 µM | IGROV-1 > 100 µM | LOX IMVI > 100 µM | MCF7 > 100 µM | MDA-N > 100 µM | MOLT-4 8.24 µM | NCI-H226 > 100 µM | NCI-H23 > 100 µM | OVCAR-5 > 100 µM | OVCAR-8 > 100 µM | SF-268 > 100 µM | SK-MEL-5 81.1 µM | SN12C 45.1 µM | TK-10 > 100 µM | U-251 > 100 µM

O=c1[nH]cc(/C=N\Nc2ccccc2)c(=O)[nH]1
inactive: ACHN 68.9 µM | BT-549 > 100 µM | COLO 205 66.2 µM | HOP-62 > 10 µM | Hs-578T > 100 µM | IGROV-1 > 100 µM | LOX IMVI 6.14 µM | MCF7 > 100 µM | MDA-N > 100 µM | NCI-H226 > 100 µM | NCI-H23 > 100 µM | OVCAR-5 > 100 µM | OVCAR-8 > 100 µM | RXF 393 > 100 µM | SF-268 > 100 µM | SK-MEL-5 11.6 µM | SN12C > 100 µM | TK-10 > 100 µM | U-251 > 100 µM

Clc1ccc(C2=C(c3ccccc3)C(c3ccc(Cl)cc3)N3C(=N[C@H]4CCCC[C@@H]43)N2)cc1 (stereo partly specified)
inactive: ACHN 11.2 µM | BT-549 14.6 µM | COLO 205 6.64 µM | Hs-578T 19.4 µM | IGROV-1 12.9 µM | LOX IMVI 11.8 µM | MCF7 7.06 µM | MDA-N 14.7 µM | MOLT-4 4.46 µM | NCI-H226 21 µM | NCI-H23 14.2 µM | OVCAR-5 16.3 µM | OVCAR-8 13.7 µM | RXF 393 13.9 µM | SF-268 19.9 µM | SK-MEL-5 12.3 µM | TK-10 10.5 µM | U-251 11.3 µM

Cn1c(S)nc2c(Cl)cc(Cl)cc2c1=O
inactive: ACHN > 100 µM | BT-549 > 100 µM | COLO 205 > 100 µM | HOP-62 > 100 µM | Hs-578T > 100 µM | IGROV-1 80.5 µM | LOX IMVI > 100 µM | MCF7 71.4 µM | MDA-N > 100 µM | MOLT-4 18.7 µM | NCI-H23 > 100 µM | OVCAR-5 > 100 µM | OVCAR-8 > 100 µM | RXF 393 > 100 µM | SF-268 > 100 µM | SK-MEL-5 99.5 µM | SN12C > 100 µM | TK-10 > 100 µM | U-251 > 100 µM

O=C1/C(=C/c2cccs2)N=C(c2ccccc2)N1C1Nc2cc3c(cc2S1)NC(N1C(=O)/C(=C/c2cccs2)N=C1c1ccccc1)S3 (stereo unspecified)
inactive: ACHN 34.1 µM | BT-549 18.1 µM | HOP-62 30.8 µM | Hs-578T 24.2 µM | IGROV-1 32.1 µM | LOX IMVI 15 µM | MCF7 23 µM | MDA-N 18.6 µM | MOLT-4 12.6 µM | NCI-H226 20.3 µM | NCI-H23 17.4 µM | OVCAR-5 27.7 µM | OVCAR-8 17.1 µM | RXF 393 23.3 µM | SF-268 20.2 µM | SK-MEL-5 17 µM | TK-10 41.5 µM | U-251 16 µM

Cc1n[nH]c(C(F)(F)F)c1/N=N/N(C)C
inactive: ACHN 4.72 µM | BT-549 11.7 µM | COLO 205 2.98 µM | HOP-62 10 µM | Hs-578T 15.6 µM | LOX IMVI 1.47 µM | MCF7 3.5 µM | MDA-N > 100 µM | MOLT-4 2.48 µM | NCI-H226 1.95 µM | NCI-H23 5.73 µM | OVCAR-8 11.1 µM | RXF 393 13 µM | SF-268 11.4 µM | SK-MEL-5 > 100 µM | SN12C 12.5 µM | TK-10 7.91 µM | U-251 11 µM

CC1/C(=N/O)CC(c2ccccc2)N(N=O)C1c1ccccc1 (stereo unspecified)
inactive: ACHN > 100 µM | BT-549 > 100 µM | COLO 205 > 100 µM | HOP-62 > 100 µM | Hs-578T > 100 µM | IGROV-1 > 100 µM | LOX IMVI > 100 µM | MCF7 > 100 µM | MDA-N > 100 µM | MOLT-4 > 100 µM | NCI-H226 > 100 µM | NCI-H23 > 100 µM | OVCAR-8 > 100 µM | RXF 393 > 100 µM | SF-268 > 100 µM | SK-MEL-5 > 100 µM | SN12C > 100 µM | TK-10 > 100 µM | U-251 > 100 µM

CCn1c(-c2ccc(C)cc2)cs/c1=N\C(P(=O)(O)O)P(=O)(O)O
inactive: ACHN > 100 µM | BT-549 > 100 µM | COLO 205 > 100 µM | HOP-62 > 100 µM | Hs-578T > 100 µM | IGROV-1 > 100 µM | LOX IMVI > 100 µM | MCF7 > 100 µM | MDA-N > 100 µM | MOLT-4 > 100 µM | NCI-H226 > 100 µM | NCI-H23 > 100 µM | OVCAR-5 > 100 µM | OVCAR-8 > 100 µM | RXF 393 > 100 µM | SF-268 > 100 µM | SK-MEL-5 31.6 µM | TK-10 > 100 µM | U-251 > 100 µM

Cc1ccc(C(=O)Cn2c(C(=O)/C=C/c3cccs3)nc3ccccc32)cc1
inactive: ACHN 61.4 µM | BT-549 34.4 µM | COLO 205 41.1 µM | HOP-62 67.1 µM | Hs-578T 20.7 µM | IGROV-1 25 µM | LOX IMVI 26.2 µM | MCF7 29.6 µM | MDA-N 28.1 µM | NCI-H226 > 100 µM | NCI-H23 29.9 µM | OVCAR-5 > 100 µM | RXF 393 94.6 µM | SF-268 32.9 µM | SK-MEL-5 36.1 µM | SN12C 32.9 µM | TK-10 53.2 µM | U-251 39.1 µM
